These results are taken from ChEMBL document CHEMBL3351564, “Discovery of a phosphodiesterase 9A inhibitor as a potential hypoglycemic agent” (J Med Chem, 2014).

The target of series [1] is High affinity cAMP-specific and IBMX-insensitive 3',5'-cyclic phosphodiesterase 8A (Homo sapiens, UniProt O60658). Kind of series: Inhibition of PDE8A1 catalytic domain (unknown origin) using [3H]-cGMP/[3H]-cAMP as substrate after 15 mins by liquid scintillation counting analysis.
For series [2], the target named is High affinity cGMP-specific 3',5'-cyclic phosphodiesterase 9A (Homo sapiens, UniProt O76083). Kind of series: Inhibition of PDE9A2 catalytic domain (unknown origin) using [3H]-cGMP/[3H]-cAMP as substrate after 15 mins by liquid scintillation counting analysis.
In series [3] the target is High affinity 3',5'-cyclic-AMP phosphodiesterase 7A (Homo sapiens, UniProt Q13946). The series is described as follows: Inhibition of PDE7A1 catalytic domain (unknown origin) using [3H]-cGMP/[3H]-cAMP as substrate after 15 mins by liquid scintillation counting analysis.
The nature of series [4]: Plasma protein binding in human at 1 to 5 uM after 4 hrs by LC/MS/MS analysis. Format: ADME, cell-free. The settings on record: read-out: PPB.
Series [5] can be described thus: Solubility of the compound in simulated gastric fluid at pH 1.4 after 24 to 48 hrs by HPLC analysis. In kind it is ADME. The settings on record: simulated gi fluid.
In series [6] the target is cGMP-dependent 3',5'-cyclic phosphodiesterase (Homo sapiens, UniProt O00408). The series is described as follows: Inhibition of PDE2A3 catalytic domain (unknown origin) using [3H]-cGMP/[3H]-cAMP as substrate after 15 mins by liquid scintillation counting analysis.
The target in series [7] is cGMP-inhibited 3',5'-cyclic phosphodiesterase 3A (Homo sapiens, UniProt Q14432). The series is described as follows: Inhibition of PDE3A catalytic domain (unknown origin) using [3H]-cGMP/[3H]-cAMP as substrate after 15 mins by liquid scintillation counting analysis.
Series [8] in a line: Solubility of the compound in simulated intestinal fluid at pH 6.8 after 24 to 48 hrs by HPLC analysis. In kind it is ADME. The settings on record: simulated gi fluid.
Series [9] has as its system Mus musculus. Kind of series: Acute toxicity in KM mouse assessed as change in body weight at 1 to 1200 mg/kg, po measured up to 2 weeks. In kind it is organism-based. Details: dose 1-1200 mg/kg, route oral. The settings on record: in vivo, 336 h.
Series [10] concerns HepG2. The series is described as follows: Hypoglycemic effect in human HepG2 cells assessed as reduction of 8-Br-cAMP/dexamethasone-induced G-6-Pase mRNA expression at 10 nM (reference value: 233%). Format: functional. Also on record: scale not given: the % may be the effect or the level left.
Series [11] in a line: Hepatic clearance in CD-1 mouse liver microsomes at […] incubated for 5 mins prior to NADPH addition measured after 30 mins by LC/MS/MS analysis. Format: ADME. A general note: Liver microsomes are a subcellular fraction often used to study metabolism.
Series [12] relates to Mus musculus. Kind of series: Acute toxicity in KM mouse assessed as change in water/food consumption at 1 to 1200 mg/kg, po measured up to 2 weeks. In kind it is organism-based. Details: dose 1-1200 mg/kg, route oral. To be noted: in vivo, 336 h.
In series [13] the test system is Mus musculus. Kind of series: Acute toxicity in KM mouse assessed as abnormal behaviour at 1 to 1200 mg/kg, po measured up to 2 weeks. Format: organism-based. Details: dose 1-1200 mg/kg, route oral. To be noted: in vivo, 336 h.
The test system of series [14] is HepG2. Kind of series: Hypoglycemic effect in human HepG2 cells assessed as reduction of 8-Br-cAMP/dexamethasone-induced G-6-Pase mRNA expression at 100 nM (reference value: 233%). Also on record: scale not given: the % may be the effect or the level left. Format: functional.
Series [15] deals with HepG2. The series is described as follows: Hypoglycemic effect in human HepG2 cells assessed as reduction of 8-Br-cAMP/dexamethasone-induced PEPCK mRNA expression at 1000 nM (reference value: 184%). Details: scale not given: the % may be the effect or the level left. In kind it is functional.
For series [16], the system named is Liver. The series is described as follows: Half life in CD-1 mouse liver microsomes at […] incubated for 5 mins prior to NADPH addition measured after 30 mins by LC/MS/MS analysis. The settings on record: 0.5 h. Format: ADME.
Series [17] concerns HepG2. The series is described as follows: Hypoglycemic effect in human HepG2 cells assessed as reduction of 8-Br-cAMP/dexamethasone-induced G-6-Pase mRNA expression at 1000 nM (reference value: 233%). In kind it is functional. Details: scale not given: the % may be the effect or the level left.
The subject of series [18] is HepG2. Kind of series: Hypoglycemic effect in human HepG2 cells assessed as reduction of 8-Br-cAMP/dexamethasone-induced PEPCK mRNA expression at 100 nM (reference value: 184%). In kind it is functional. Also on record: scale not given: the % may be the effect or the level left.
Series [19] has as its system Mus musculus. The series is described as follows: Acute toxicity in KM mouse assessed as poisoned symptom at 1 to 1200 mg/kg, po measured up to 2 weeks. Format: organism-based. Also on record: dose 1-1200 mg/kg, route oral. To be noted: in vivo, 336 h.
Series [20] relates to HepG2. Kind of series: Hypoglycemic effect in human HepG2 cells assessed as reduction of 8-Br-cAMP/dexamethasone-induced PEPCK mRNA expression at 10 nM (reference value: 184%). In kind it is functional. Also on record: scale not given: the % may be the effect or the level left.
Series [21] concerns Mus musculus. Kind of series: Acute toxicity in KM mouse assessed as mortality at 1 to 1200 mg/kg, po measured up to 2 weeks. Format: organism-based. Details: dose 1-1200 mg/kg, route oral. The settings on record: in vivo, 336 h.
A short description of series [22]: Apparent clearance in CD-1 mouse liver microsomes at […] incubated for 5 mins prior to NADPH addition measured after 30 mins by LC/MS/MS analysis. In kind it is ADME. To be noted: read-out: CL(app).
The nature of series [23]: in vitro. The settings on record: CD-1, mouse, liver microsomes.

Values after ≈ are worked out from the molar mass of the structure shown.

The IC50 is the concentration that inhibits the measured activity by half. A word on the solubility: it is how much of the substance goes into solution per volume.

Chain of High affinity cAMP-specific and IBMX-insensitive 3',5'-cyclic phosphodiesterase 8A (O60658 whole entry, the tested form may be a part): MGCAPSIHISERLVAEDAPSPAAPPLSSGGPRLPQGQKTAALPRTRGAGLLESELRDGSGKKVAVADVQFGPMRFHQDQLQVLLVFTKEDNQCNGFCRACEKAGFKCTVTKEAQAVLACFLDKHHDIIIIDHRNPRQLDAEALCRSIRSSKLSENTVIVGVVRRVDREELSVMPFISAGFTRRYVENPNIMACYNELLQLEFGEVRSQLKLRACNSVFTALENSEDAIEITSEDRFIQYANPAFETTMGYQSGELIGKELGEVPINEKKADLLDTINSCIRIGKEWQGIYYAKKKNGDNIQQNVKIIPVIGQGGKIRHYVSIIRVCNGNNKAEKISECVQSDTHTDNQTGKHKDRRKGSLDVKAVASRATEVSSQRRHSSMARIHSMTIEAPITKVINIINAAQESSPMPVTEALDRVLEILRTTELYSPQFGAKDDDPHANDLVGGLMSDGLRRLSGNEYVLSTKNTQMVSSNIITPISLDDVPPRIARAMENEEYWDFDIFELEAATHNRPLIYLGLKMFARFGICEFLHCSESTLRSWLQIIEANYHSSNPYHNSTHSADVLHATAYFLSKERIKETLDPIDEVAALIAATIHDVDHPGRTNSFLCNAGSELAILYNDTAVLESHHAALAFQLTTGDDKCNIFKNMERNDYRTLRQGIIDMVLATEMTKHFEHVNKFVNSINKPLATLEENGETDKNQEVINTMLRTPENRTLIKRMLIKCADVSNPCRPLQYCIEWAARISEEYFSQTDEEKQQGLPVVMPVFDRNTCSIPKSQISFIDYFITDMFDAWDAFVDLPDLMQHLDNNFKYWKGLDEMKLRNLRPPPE
Chain of High affinity 3',5'-cyclic-AMP phosphodiesterase 7A (Q13946 whole entry, the tested form may be a part): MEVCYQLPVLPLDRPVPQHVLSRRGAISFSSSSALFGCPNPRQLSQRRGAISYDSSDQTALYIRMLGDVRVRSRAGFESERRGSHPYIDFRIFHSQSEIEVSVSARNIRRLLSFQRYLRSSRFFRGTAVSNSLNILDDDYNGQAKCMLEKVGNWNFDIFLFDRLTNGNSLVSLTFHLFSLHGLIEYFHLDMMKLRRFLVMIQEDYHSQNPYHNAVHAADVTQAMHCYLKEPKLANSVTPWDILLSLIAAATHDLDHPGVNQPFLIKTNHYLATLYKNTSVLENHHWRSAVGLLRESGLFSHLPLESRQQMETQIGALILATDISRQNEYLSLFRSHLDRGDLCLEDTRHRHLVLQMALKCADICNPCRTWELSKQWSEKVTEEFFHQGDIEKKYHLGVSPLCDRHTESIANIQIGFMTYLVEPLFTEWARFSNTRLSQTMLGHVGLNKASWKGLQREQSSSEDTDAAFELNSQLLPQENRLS
Chain of cGMP-dependent 3',5'-cyclic phosphodiesterase (O00408 whole entry, the tested form may be a part): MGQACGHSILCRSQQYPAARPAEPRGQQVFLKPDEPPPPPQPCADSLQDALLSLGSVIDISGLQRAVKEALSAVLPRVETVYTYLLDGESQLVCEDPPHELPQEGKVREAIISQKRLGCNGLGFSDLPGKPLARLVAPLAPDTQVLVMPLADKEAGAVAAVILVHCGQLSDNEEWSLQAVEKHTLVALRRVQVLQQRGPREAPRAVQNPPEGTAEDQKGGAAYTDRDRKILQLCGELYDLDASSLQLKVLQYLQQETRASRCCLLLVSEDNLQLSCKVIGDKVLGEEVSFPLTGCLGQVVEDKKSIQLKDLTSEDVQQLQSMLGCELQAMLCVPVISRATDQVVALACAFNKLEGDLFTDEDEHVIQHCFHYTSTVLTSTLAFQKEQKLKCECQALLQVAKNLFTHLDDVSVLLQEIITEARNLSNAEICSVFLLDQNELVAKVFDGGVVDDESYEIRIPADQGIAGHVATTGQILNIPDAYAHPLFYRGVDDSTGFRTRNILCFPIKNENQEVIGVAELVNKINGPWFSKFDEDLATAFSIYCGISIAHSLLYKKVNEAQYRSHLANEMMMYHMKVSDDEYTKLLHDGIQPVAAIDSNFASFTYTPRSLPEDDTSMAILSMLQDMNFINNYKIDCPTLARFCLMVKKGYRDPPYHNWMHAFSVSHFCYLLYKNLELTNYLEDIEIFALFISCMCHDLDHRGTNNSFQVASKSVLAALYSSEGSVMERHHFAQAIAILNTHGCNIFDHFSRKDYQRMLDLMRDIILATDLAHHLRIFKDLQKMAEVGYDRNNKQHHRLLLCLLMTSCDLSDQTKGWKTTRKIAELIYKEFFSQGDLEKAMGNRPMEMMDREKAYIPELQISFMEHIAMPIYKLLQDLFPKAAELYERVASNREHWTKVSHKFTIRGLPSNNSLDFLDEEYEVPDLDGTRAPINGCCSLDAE
Chain of High affinity cGMP-specific 3',5'-cyclic phosphodiesterase 9A (O76083 whole entry, the tested form may be a part): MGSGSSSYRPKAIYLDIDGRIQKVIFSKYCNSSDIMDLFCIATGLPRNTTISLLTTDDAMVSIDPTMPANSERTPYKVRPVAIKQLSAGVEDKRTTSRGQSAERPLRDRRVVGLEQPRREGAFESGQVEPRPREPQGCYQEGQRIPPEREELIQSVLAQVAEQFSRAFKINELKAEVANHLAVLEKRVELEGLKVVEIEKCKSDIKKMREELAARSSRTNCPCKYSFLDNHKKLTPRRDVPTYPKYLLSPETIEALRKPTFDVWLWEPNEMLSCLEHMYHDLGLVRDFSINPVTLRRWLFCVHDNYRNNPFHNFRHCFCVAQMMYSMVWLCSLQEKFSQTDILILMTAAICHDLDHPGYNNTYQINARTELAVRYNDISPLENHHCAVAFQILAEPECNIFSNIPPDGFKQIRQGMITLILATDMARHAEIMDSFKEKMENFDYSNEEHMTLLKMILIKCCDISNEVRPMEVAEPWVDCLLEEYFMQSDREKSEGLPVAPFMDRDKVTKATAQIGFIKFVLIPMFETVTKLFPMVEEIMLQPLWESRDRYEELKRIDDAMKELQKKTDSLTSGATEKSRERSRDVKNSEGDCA
Chain of cGMP-inhibited 3',5'-cyclic phosphodiesterase 3A (Q14432 whole entry, the tested form may be a part): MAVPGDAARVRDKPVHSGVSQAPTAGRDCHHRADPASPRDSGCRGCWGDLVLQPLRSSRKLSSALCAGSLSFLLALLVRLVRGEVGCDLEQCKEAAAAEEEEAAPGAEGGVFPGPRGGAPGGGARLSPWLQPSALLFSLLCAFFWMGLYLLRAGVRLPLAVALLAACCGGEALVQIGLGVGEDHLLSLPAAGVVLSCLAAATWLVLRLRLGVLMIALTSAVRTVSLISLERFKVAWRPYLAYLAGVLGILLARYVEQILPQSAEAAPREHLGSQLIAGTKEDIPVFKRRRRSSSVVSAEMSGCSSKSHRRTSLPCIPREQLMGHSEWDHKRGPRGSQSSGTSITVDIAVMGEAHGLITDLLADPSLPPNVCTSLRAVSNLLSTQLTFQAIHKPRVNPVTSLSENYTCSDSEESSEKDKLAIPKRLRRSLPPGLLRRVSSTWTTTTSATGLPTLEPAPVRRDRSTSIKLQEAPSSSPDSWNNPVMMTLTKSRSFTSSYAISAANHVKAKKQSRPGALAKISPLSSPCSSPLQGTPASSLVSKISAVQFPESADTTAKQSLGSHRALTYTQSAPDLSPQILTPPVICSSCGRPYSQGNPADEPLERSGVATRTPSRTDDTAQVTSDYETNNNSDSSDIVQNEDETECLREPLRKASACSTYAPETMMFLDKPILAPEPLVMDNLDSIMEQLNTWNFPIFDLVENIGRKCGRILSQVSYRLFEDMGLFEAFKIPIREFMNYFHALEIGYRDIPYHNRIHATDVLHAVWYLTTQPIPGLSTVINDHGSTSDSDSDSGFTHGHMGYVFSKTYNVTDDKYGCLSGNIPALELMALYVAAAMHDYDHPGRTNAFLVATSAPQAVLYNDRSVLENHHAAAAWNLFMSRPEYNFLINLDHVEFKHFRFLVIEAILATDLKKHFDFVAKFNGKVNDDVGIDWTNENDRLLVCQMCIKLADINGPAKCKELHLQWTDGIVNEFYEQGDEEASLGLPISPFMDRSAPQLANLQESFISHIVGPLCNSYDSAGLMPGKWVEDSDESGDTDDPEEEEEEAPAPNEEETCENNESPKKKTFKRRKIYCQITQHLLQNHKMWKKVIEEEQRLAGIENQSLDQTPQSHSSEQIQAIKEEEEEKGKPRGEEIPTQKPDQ

Consider `COc1ccc(NC(=O)[C@@H](C)Nc2nc3c(cnn3-c3ccccc3Cl)c(=O)[nH]2)cc1`, for which the IC50 was over 100 µM in [1], 0.0064 µM in series [2] and 51.2 µM in series [3].

Regarding `COc1ccc(NC(=O)[C@H](C)Nc2nc3c(cnn3-c3ccccc3Cl)c(=O)[nH]2)cc1`, the IC50 was over 100 µM in [1], over 100 µM in series [3], over 50 µM in series [6] and over 50 µM in series [7]. Further, the fraction unbound at 4 h, up to 5 µM in series [4] is under 0.057. Also, the solubility in [5] is 8 µg/mL (≈ 18.2 µM); in series [8] it was 13 µg/mL (≈ 29.6 µM).

With `COc1ccc(NC(=O)[C@@H](C)Nc2nc3c(cnn3C3CCCC3)c(=O)[nH]2)cc1`, the Activity result in series [9] was “Non-toxic”; in series [10], 98.4%; in series [12], “Non-toxic”; in [13], “Non-toxic”; in [14], 93.2%; in series [15] it was 105%. Also, the Activity in series [17] is recorded as 97.2%; in [18], 96.5%; in series [19] it was “Non-toxic”; in [20] it was 108%; in series [21] it was “Non-toxic”. Moreover, the IC50 in [1] was over 100 µM; in series [6], 13 µM. Moreover, the fraction unbound at 4 h, up to 5 µM in series [4] was under 0.057. Moreover, in series [5], the solubility was 26 µg/mL (≈ 65.6 µM). Besides, the CLhep predicted at […] in series [11] was 65.8 mL/min/kg. In addition, the t1/2 in series [16] worked out at 22.3 min. The CLint scaled at […] in series [22] was 244 mL/min/kg.

Turning to `COc1ccc(NC(=O)[C@H](C)Nc2nc3c(cnn3C3CCCC3)c(=O)[nH]2)cc1`, the IC50 in series [1] was over 100 µM. For the same molecule, the fraction unbound at 4 h, up to 5 µM in series [4] was under 0.057. Moreover, the solubility is 23 µg/mL (≈ 58 µM) in [5] and 31 µg/mL (≈ 78.2 µM) in series [8].

Turning to `C[C@]12CC[C@H]3[C@@H](CCC4=CC(=O)CC[C@@]43C)[C@@H]1CC[C@@H]2O` [TESTOSTERONE], the hepatic extraction ratio at 0.5 h, […] in series [23] stood at 0.968. Also, the CLhep predicted at […] in [11] is 87.1 mL/min/kg. In series [16], this molecule came in with a t1/2 of 2 min. The CLint scaled at […] in series [22] amounted to 2730 mL/min/kg.

`CC(=O)CC(c1ccccc1)c1c(O)c2ccccc2oc1=O` (stereo not drawn) [WARFARIN]: the CLhep predicted at […] in series [11] was 23 mL/min/kg. Besides, the CLint scaled at […] in [22] came out at 30.9 mL/min/kg.
